PubChem BioAssay AID248 (DTP/NCI, 2004)
Several values for one entry are separate records, joined by “and”; a condition that tells them apart may be missing. Identical values can stand only once. Inconclusive results and toxic doses are left out. Cut-off read from the data, not from the text of the source: active = T/C of 150% or more; inactive = T/C below 125%.

Tested on: L1210 leukemia ip in BDF1 mice, survival T/C
Experiment: NCI In Vivo Anticancer Drug Screen. Data for tumor model L1210 Leukemia (intraperitoneal) in B6D2F1 (BDF1) mice
Settings: endpoint: mean survival time, higher = longer survival
Outline: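 Transplanted-tumor mice were given test agent; controls received vehicle only. Survival readings from the two groups were divided (treated over control).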

[1] = dose: 100.0 mg/kg/injection, schedule: Q01DX009 (ip), vehicle: Klucel (hydroxypropylcellulose) (HPC)
[2] = dose: 200.0 mg/kg/injection, schedule: Q01DX009 (ip), vehicle: Klucel (hydroxypropylcellulose) (HPC)
[3] = dose: 100.0 mg/kg/injection, schedule: Q04DX002 (ip), vehicle: Klucel (hydroxypropylcellulose) (HPC)
[4] = dose: 200.0 mg/kg/injection, schedule: Q04DX002 (ip), vehicle: Klucel (hydroxypropylcellulose) (HPC)
[5] = dose: 400.0 mg/kg/injection, schedule: Q04DX002 (ip), vehicle: Klucel (hydroxypropylcellulose) (HPC)
[6] = dose: 100.0 mg/kg/injection, schedule: Q01DX001 (ip), vehicle: carboxymethylcellulose (CMC)
[7] = dose: 200.0 mg/kg/injection, schedule: Q01DX001 (ip), vehicle: carboxymethylcellulose (CMC)
[8] = dose: 400.0 mg/kg/injection, schedule: Q01DX001 (ip), vehicle: carboxymethylcellulose (CMC)
[9] = dose: 100.0 mg/kg/injection, schedule: Q01DX001 (ip), vehicle: Klucel (hydroxypropylcellulose) (HPC)
[10] = dose: 200.0 mg/kg/injection, schedule: Q01DX001 (ip), vehicle: Klucel (hydroxypropylcellulose) (HPC)
[11] = dose: 25.0 mg/kg/injection, schedule: Q04DX002 (ip), vehicle: Klucel (hydroxypropylcellulose) (HPC)
[12] = dose: 50.0 mg/kg/injection, schedule: Q04DX002 (ip), vehicle: Klucel (hydroxypropylcellulose) (HPC)
[13] = dose: 100.0 mg/kg/injection, schedule: Q04DX003 (ip), vehicle: saline
[14] = dose: 200.0 mg/kg/injection, schedule: Q04DX003 (ip), vehicle: saline
[15] = dose: 400.0 mg/kg/injection, schedule: Q04DX003 (ip), vehicle: saline
[16] = dose: 100.0 mg/kg/injection, schedule: Q04DX003 (ip), vehicle: saline with Tween-80
[17] = dose: 200.0 mg/kg/injection, schedule: Q04DX003 (ip), vehicle: saline with Tween-80
[18] = dose: 400.0 mg/kg/injection, schedule: Q04DX003 (ip), vehicle: saline with Tween-80
[19] = dose: 100.0 mg/kg/injection, schedule: Q01DX009 (ip), vehicle: saline with Tween-80
[20] = dose: 200.0 mg/kg/injection, schedule: Q01DX009 (ip), vehicle: saline with Tween-80
[21] = dose: 400.0 mg/kg/injection, schedule: Q01DX009 (ip), vehicle: saline with Tween-80
[22] = dose: 100.0 mg/kg/injection, schedule: Q01DX001 (ip), vehicle: saline
[23] = dose: 200.0 mg/kg/injection, schedule: Q01DX001 (ip), vehicle: saline

Measured: T/C

COc1ccc(C)cc1NC(=O)c1c(Br)c(Br)c(Br)c(Br)c1C(=O)O
inactive: [1] 98 % of control | [2] 92 % of control

O=[N+]([O-])c1ccc(N/N=C2\CCCCCC2c2ccccc2)c([N+](=O)[O-])c1 (configuration not stated)
inactive: [3] 100 % of control | [4] 96 % of control | [5] 100 % of control

CC(=O)CC(=O)C(F)(F)F.CC(=O)CC(=O)C(F)(F)F.CC(=O)CC(=O)C(F)(F)F.CC(=O)CC(=O)C(F)(F)F.[Th]
inactive: dose: 100.0 mg/kg/injection, schedule: Q01DX005 (ip), vehicle: gum acacia 90 % of control | dose: 100.0 mg/kg/injection, schedule: Q04DX002 (ip), vehicle: gum acacia 96 % of control | dose: 200.0 mg/kg/injection, schedule: Q01DX005 (ip), vehicle: gum acacia 93 % of control | dose: 200.0 mg/kg/injection, schedule: Q01DX009 (ip), vehicle: gum acacia 101 % of control | dose: 200.0 mg/kg/injection, schedule: Q04DX002 (ip), vehicle: gum acacia 96 % of control | dose: 400.0 mg/kg/injection, schedule: Q01DX005 (ip), vehicle: gum acacia 90 % of control | dose: 400.0 mg/kg/injection, schedule: Q01DX009 (ip), vehicle: gum acacia 94 % of control | dose: 400.0 mg/kg/injection, schedule: Q04DX002 (ip), vehicle: gum acacia 107 % of control

Cc1ccc(-c2nnc3c4ccccc4ccn23)cc1
inactive: [6] 93 % of control | [7] 93 % of control | [8] 91 % of control

O=[N+]([O-])c1ccc2c(c1)/C(=N\O)c1cc(Cl)c(Cl)cc1-2
inactive: [6] 98 % of control | dose: 100.0 mg/kg/injection, schedule: Q04DX003 (ip), vehicle: acetone 94 % of control | [7] 98 % of control | dose: 200.0 mg/kg/injection, schedule: Q04DX003 (ip), vehicle: acetone 100 % of control | [8] 95 % of control | dose: 400.0 mg/kg/injection, schedule: Q04DX003 (ip), vehicle: acetone 96 % of control

C=C1c2[nH]c3ccccc3c2C2C(CC)C1CCN2C (configuration not stated)
inactive: dose: 30.0 mg/kg/injection, schedule: Q01DX Z (ip), vehicle: olive oil, sesame oil, peanut oil 102 % of control | dose: 50.0 mg/kg/injection, schedule: Q01DX Z (ip), vehicle: olive oil, sesame oil, peanut oil 98 % of control

CCN(CC)CCn1c(CC23CC4CC(CC(C4)C2)C3)nc2cc([N+](=O)[O-])ccc21
inactive: [9] 90 % of control | [10] 98 % of control

N#CC(NC(=O)c1ccccc1)SCc1ccccc1 (configuration not stated)
inactive: [11] 107 % of control | [12] 91 % of control | [3] 91 % of control

CCOC(=O)c1cnc(C)nc1Nc1ccccc1Cl
inactive: dose: 50.0 mg/kg/injection, schedule: Q04DX003 (ip), vehicle: saline 105 % of control | [13] 104 % of control | [14] 98 % of control and 108 % of control

COC1OC(CO)C(NC(N)=O)C1O (configuration not stated)
inactive: [3] 105 % of control | [4] 105 % of control | [5] 111 % of control

O=C(OCCCCCOC(=O)c1cccc([N+](=O)[O-])c1)c1cccc([N+](=O)[O-])c1
inactive: dose: 100.0 mg/kg/injection, schedule: Q01DX001 (ip), vehicle: other 93 % of control | dose: 200.0 mg/kg/injection, schedule: Q01DX001 (ip), vehicle: other 96 % of control | dose: 400.0 mg/kg/injection, schedule: Q01DX001 (ip), vehicle: other 95 % of control

O=c1[nH]cc(CCCO)c(=O)[nH]1
inactive: dose: 100.0 mg/kg/injection, schedule: Q01DX009 (ip), vehicle: saline 88 % of control | [13] 103 % of control | dose: 200.0 mg/kg/injection, schedule: Q01DX009 (ip), vehicle: saline 93 % of control | [14] 100 % of control | dose: 400.0 mg/kg/injection, schedule: Q01DX009 (ip), vehicle: saline 88 % of control | [15] 92 % of control

CCCCCCCCCCCCCCCC(O)S(=O)(=O)O (configuration not stated)
inactive: [16] 92 % of control | [17] 97 % of control

CC(=O)c1ccc2ccc3ccccc3c2c1
inactive: dose: 75.0 mg/kg/injection, schedule: Q01DX009 (ip), vehicle: saline 98 % of control | [13] 98 % of control | dose: 150.0 mg/kg/injection, schedule: Q01DX009 (ip), vehicle: saline 98 % of control | [14] 101 % of control | dose: 300.0 mg/kg/injection, schedule: Q01DX009 (ip), vehicle: saline 95 % of control | [15] 101 % of control

O=C1CCC(=O)N1C1c2ccccc2Oc2ccccc21
inactive: [13] 95 % of control | [14] 95 % of control | [15] 90 % of control

CCC(C(=O)c1ccc(F)cc1)C(O)(C(F)(F)F)C(F)(F)F (configuration not stated)
inactive: [16] 104 % of control | [17] 103 % of control | [18] 101 % of control

O=C1NC(=S)S/C1=C\c1ccc(N(CCCl)CCCl)cc1
inactive: [16] 96 % of control | [17] 93 % of control | [18] 96 % of control

CS(=O)(=O)c1nc2ccccc2s1
inactive: dose: 25.0 mg/kg/injection, schedule: Q01DX009 (ip), vehicle: saline with Tween-80 97 % of control | dose: 25.0 mg/kg/injection, schedule: Q04DX003 (ip), vehicle: Klucel (hydroxypropylcellulose) (HPC) 101 % of control | dose: 50.0 mg/kg/injection, schedule: Q01DX009 (ip), vehicle: saline with Tween-80 92 % of control | dose: 50.0 mg/kg/injection, schedule: Q04DX003 (ip), vehicle: Klucel (hydroxypropylcellulose) (HPC) 106 % of control | [19] 107 % of control | dose: 100.0 mg/kg/injection, schedule: Q04DX003 (ip), vehicle: Klucel (hydroxypropylcellulose) (HPC) 106 % of control

C=CCC(CC)C(=O)Cl (configuration not stated)
inactive: [19] 104 % of control | [16] 94 % of control | [20] 91 % of control | [17] 94 % of control | [21] 91 % of control | [18] 102 % of control

CCCCCCCCCC(=O)N/N=C/c1ccccc1O
inactive: [1] 93 % of control | [2] 101 % of control | dose: 400.0 mg/kg/injection, schedule: Q01DX009 (ip), vehicle: Klucel (hydroxypropylcellulose) (HPC) 105 % of control

COC1OC2COC(c3ccccc3)OC2C(OC(=O)c2ccccc2)C1OC(=O)c1ccccc1 (configuration not stated)
inactive: dose: 12.5 mg/kg/injection, schedule: Q04DX002 (ip), vehicle: Klucel (hydroxypropylcellulose) (HPC) 104 % of control | [11] 100 % of control | [12] 98 % of control

Nc1ccccc1-c1nc(N)c2ccccc2n1
inactive: [9] 102 % of control | [10] 102 % of control | dose: 400.0 mg/kg/injection, schedule: Q01DX001 (ip), vehicle: Klucel (hydroxypropylcellulose) (HPC) 108 % of control

CC1CCC(NCCOC(=O)c2ccc(N)cc2)CC1 (configuration not stated)
inactive: dose: 75.0 mg/kg/injection, schedule: Q01DX001 (ip), vehicle: other 94 % of control | dose: 150.0 mg/kg/injection, schedule: Q01DX001 (ip), vehicle: other 108 % of control

O=C(O)c1ccccc1/C=C1/Nc2ccccc2C1=O
inactive: dose: 10.0 mg/kg/injection, schedule: Q01DX001 (ip), vehicle: acetone 102 % of control | dose: 20.0 mg/kg/injection, schedule: Q01DX001 (ip), vehicle: acetone 94 % of control

O=C(O)c1cccc(-c2ccccc2)c1O
inactive: [22] 97 % of control | [23] 102 % of control

COc1cc(N)c(C(F)(F)F)cc1OC
inactive: [19] 96 % of control | [16] 103 % of control | [20] 94 % of control | [17] 105 % of control | [21] 104 % of control | [18] 104 % of control

NC(=O)c1ncn(C2CCCC2O)c1N (configuration not stated)
inactive: [22] 91 % of control | [23] 102 % of control | dose: 400.0 mg/kg/injection, schedule: Q01DX001 (ip), vehicle: saline 86 % of control
